Where a SMILES comes first, the peptide text is derived from it. Bridges are numbered along the chain shown (N, C = ends). [ ]: non-standard residue; d: D form. The star is where a group is joined. ξ: configuration not given here. Bip = N[C@@H](Cc1ccc(-c2ccccc2)cc1)C(=O)O; Gly(cPent) = N[C@H](C(=O)O)C1CCCC1; hArg = N=C(N)NCCCC[C@H](N)C(=O)O; 4Pal = N[C@@H](Cc1ccncc1)C(=O)O; Cha = N[C@@H](CC1CCCCC1)C(=O)O; Ile(3ξ) = CCC(C)[C@H](N)C(=O)O; Thr(3ξ) = CC(O)[C@H](N)C(=O)O; Ala(CN) = N#CC[C@H](N)C(=O)O; Carboxymethyl = O=C(O)C*; NMeA = CN[C@@H](C)C(=O)O; Nle = CCCC[C@H](N)C(=O)O; Orn = NCCC[C@H](N)C(=O)O; Dab = NCC[C@H](N)C(=O)O

In the first assay the target is T1, human PD-1 / PD-L1-Ig binding on Jurkat cell line over-expressing human PD-1 (Jurkat-PD-1) (Homo sapiens, UniProt Q15116).
T1 construct: expressed in transfected cells; host or cells: Jurkat
T1 sequence (Q15116 25-288): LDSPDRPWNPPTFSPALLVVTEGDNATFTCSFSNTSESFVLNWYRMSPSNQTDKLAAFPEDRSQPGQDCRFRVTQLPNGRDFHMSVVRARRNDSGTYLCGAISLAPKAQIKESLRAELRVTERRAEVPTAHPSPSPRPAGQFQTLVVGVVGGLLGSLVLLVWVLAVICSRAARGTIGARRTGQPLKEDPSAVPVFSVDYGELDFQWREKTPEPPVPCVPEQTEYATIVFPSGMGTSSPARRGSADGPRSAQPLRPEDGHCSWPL
The experiment in a line: Jurkat-PD-1 Cell Binding High-Content Screening Assay (CBA). The format is cell-based. The settings on record: Jurkat-PD-1 cells, PE-labeled PD-L1-Ig 20 nM final; read-out: Jurkat HPD1_PDL1 IC50. Put shortly: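 Read-out: high-content imaging of PE-tagged PD-L1-Ig bound to Jurkat cells overexpressing human PD-1, after fixation with 4% paraformaldehyde and Hoechst 33342 nuclear staining. Ligand was used at 20 nM final for 1 hour, after a 2 h compound exposure at 37° C in serum-containing DMEM.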
With `CC(C)C[C@H]1NC(=O)[C@H](CCCN)NC(=O)[C@H](C(C)C)NC(=O)[C@H](Cc2ccc(-c3ccccc3)cc2)NC(=O)[C@H](C(C)C)NC(=O)[C@H](Cc2c[nH]c3ccccc23)NC(=O)[C@H](CC(=O)O)NC(=O)[C@H](Cc2ccc(OCC(=O)O)cc2)NC(=O)[C@H](CCCCNC(=N)N)NC(=O)CSC[C@@H](C(=O)N(C)[C@@H](C)C(N)=O)NC(=O)[C@H](CO)NC(=O)[C@H](C(C)C)NC(=O)[C@H](CC2CCCCC2)NC(=O)[C@H](CCN)NC1=O` [Compound 2569] ({CH2CO}-[hArg]Y(Carboxymethyl)DWV[Bip]V[Orn][dL][Dab][Cha]VSC[NMeA]-NH2; thioether N-14), the IC50 stood at 18.5 nM. Same read-out and setting: the result for `CC(C)C[C@H]1NC(=O)[C@H](CCCN)NC(=O)[C@H](C(C)C)NC(=O)[C@H](Cc2ccc(-c3ccccc3)cc2)NC(=O)[C@H](C(C)C)NC(=O)[C@H](Cc2c[nH]c3ccccc23)NC(=O)[C@H](CC(=O)O)NC(=O)[C@H](Cc2ccc(OCC(=O)O)cc2)NC(=O)[C@H](C(C)O)NC(=O)CSC[C@@H](C(=O)N(C)[C@@H](C)C(N)=O)NC(=O)[C@H](CO)NC(=O)[C@H](C(C)C)NC(=O)[C@H](CC2CCCCC2)NC(=O)[C@H](CCN)NC1=O` (stereo partly drawn) [Compound 2570] ({CH2CO}-[Thr(3ξ)]Y(Carboxymethyl)DWV[Bip]V[Orn][dL][Dab][Cha]VSC[NMeA]-NH2; thioether N-14) reads 15.2 nM. For the compound `CCCC[C@@H]1NC(=O)[C@H](Cc2c[nH]c3ccccc23)NC(=O)[C@H](CC(=O)O)NC(=O)[C@H](Cc2ccc(OCC(=O)O)cc2)NC(=O)[C@H](C(C)O)NC(=O)CSC[C@@H](C(=O)N[C@@H](CC(N)=O)C(=O)O)NC(=O)[C@H](CO)NC(=O)[C@H](C(C)C)NC(=O)[C@H](CC(C)C)NC(=O)[C@H](CCN)NC(=O)[C@@H](CC(C)C)NC(=O)[C@H](CCCN)NC(=O)[C@H](C(C)CC)NC(=O)[C@H](Cc2ccc(-c3ccccc3)cc2)NC1=O` (stereo partly drawn) [Compound 2571] ({CH2CO}-[Thr(3ξ)]Y(Carboxymethyl)DW[Nle][Bip][Ile(3ξ)][Orn][dL][Dab]LVSCN-OH; thioether N-14), the IC50 was 26.1 nM. Same read-out and setting: in the case of `CCC(C)[C@@H]1NC(=O)[C@H](Cc2ccc(-c3ccccc3)cc2)NC(=O)[C@H](C(C)O)NC(=O)[C@H](Cc2c[nH]c3ccccc23)NC(=O)[C@H](CC(=O)O)NC(=O)[C@H](Cc2ccc(OCC(=O)O)cc2)NC(=O)[C@H](C(C)O)NC(=O)CSC[C@@H](C(=O)N[C@@H](CC(N)=O)C(=O)O)NC(=O)[C@H](CO)NC(=O)[C@H](C(C)C)NC(=O)[C@H](CC(C)C)NC(=O)[C@H](CCN)NC(=O)[C@@H](CC(C)C)NC(=O)[C@H](CCCN)NC1=O` (stereo partly drawn) [Compound 2572] ({CH2CO}-[Thr(3ξ)]Y(Carboxymethyl)DW[Thr(3ξ)][Bip][Ile(3ξ)][Orn][dL][Dab]LVSCN-OH; thioether N-14) it was 77.4 nM.

In the case of `CCC(C)[C@@H]1NC(=O)[C@H](Cc2c[nH]c3ccccc23)NC(=O)[C@H](CC(=O)O)NC(=O)[C@H](Cc2ccc(OCC(=O)O)cc2)NC(=O)[C@H](C(C)O)NC(=O)CSC[C@@H](C(=O)N[C@@H](CC(N)=O)C(=O)O)NC(=O)[C@H](CO)NC(=O)[C@H](C(C)C)NC(=O)[C@H](CC(C)C)NC(=O)[C@H](CCN)NC(=O)[C@@H](CC(C)C)NC(=O)[C@H](CCCN)NC(=O)[C@H](C(C)CC)NC(=O)[C@H](Cc2ccc(-c3ccccc3)cc2)NC1=O` (stereo partly drawn) [Compound 2573] ({CH2CO}-[Thr(3ξ)]Y(Carboxymethyl)DW[Ile(3ξ)][Bip][Ile(3ξ)][Orn][dL][Dab]LVSCN-OH; thioether N-14), the IC50 was 162 nM. On the same count and under the same terms, in the case of `CCC(C)[C@@H]1NC(=O)[C@H](Cc2ccc(-c3ccccc3)cc2)NC(=O)[C@H](Cc2ccccc2)NC(=O)[C@H](Cc2c[nH]c3ccccc23)NC(=O)[C@H](CC(=O)O)NC(=O)[C@H](Cc2ccc(OCC(=O)O)cc2)NC(=O)[C@H](C(C)O)NC(=O)CSC[C@@H](C(=O)N[C@@H](CC(N)=O)C(=O)O)NC(=O)[C@H](CO)NC(=O)[C@H](C(C)C)NC(=O)[C@H](CC(C)C)NC(=O)[C@H](CCN)NC(=O)[C@@H](CC(C)C)NC(=O)[C@H](CCCN)NC1=O` (stereo partly drawn) [Compound 2574] ({CH2CO}-[Thr(3ξ)]Y(Carboxymethyl)DWF[Bip][Ile(3ξ)][Orn][dL][Dab]LVSCN-OH; thioether N-14) it was 132 nM; in that of `CCC(C)[C@@H]1NC(=O)[C@H](Cc2ccc(-c3ccccc3)cc2)NC(=O)[C@H](CC2CCCCC2)NC(=O)[C@H](Cc2c[nH]c3ccccc23)NC(=O)[C@H](CC(=O)O)NC(=O)[C@H](Cc2ccc(OCC(=O)O)cc2)NC(=O)[C@H](C(C)O)NC(=O)CSC[C@@H](C(=O)N[C@@H](CC(N)=O)C(=O)O)NC(=O)[C@H](CO)NC(=O)[C@H](C(C)C)NC(=O)[C@H](CC(C)C)NC(=O)[C@H](CCN)NC(=O)[C@@H](CC(C)C)NC(=O)[C@H](CCCN)NC1=O` (stereo partly drawn) [Compound 2575] ({CH2CO}-[Thr(3ξ)]Y(Carboxymethyl)DW[Cha][Bip][Ile(3ξ)][Orn][dL][Dab]LVSCN-OH; thioether N-14), 60.1 nM. Turning to `CCC(C)[C@@H]1NC(=O)[C@H](Cc2ccc(-c3ccccc3)cc2)NC(=O)[C@H](CC(C)C)NC(=O)[C@H](Cc2c[nH]c3ccccc23)NC(=O)[C@H](CC(=O)O)NC(=O)[C@H](Cc2ccc(OCC(=O)O)cc2)NC(=O)[C@H](Cc2ccc(OCC(=O)O)cc2)NC(=O)CSC[C@@H](C(=O)N[C@@H](CC(N)=O)C(=O)O)NC(=O)[C@H](CO)NC(=O)[C@H](C(C)C)NC(=O)[C@H](CC(C)C)NC(=O)[C@H](CCN)NC(=O)[C@@H](CC(C)C)NC(=O)[C@H](CCCN)NC1=O` (stereo partly drawn) [Compound 2576] ({CH2CO}-Y(Carboxymethyl)Y(Carboxymethyl)DWL[Bip][Ile(3ξ)][Orn][dL][Dab]LVSCN-OH; thioether N-14), the IC50 is 12.4 nM. The same measure, in the same setting: in the case of `CCC(C)[C@@H]1NC(=O)[C@H](Cc2ccc(-c3ccccc3)cc2)NC(=O)[C@H](CC(C)C)NC(=O)[C@H](Cc2c[nH]c3ccccc23)NC(=O)[C@H](CC(=O)O)NC(=O)[C@H](Cc2ccc(OCC(=O)O)cc2)NC(=O)[C@H](C(C)O)NC(=O)CSC[C@@H](C(=O)N[C@@H](CC(N)=O)C(=O)O)NC(=O)[C@H](CO)NC(=O)[C@H](C(C)C)NC(=O)[C@H](CC(C)C)NC(=O)[C@H](CCN)NC(=O)[C@@H](CC(C)C)NC(=O)[C@H](CCCN)NC1=O` (stereo partly drawn) [Compound 2577] ({CH2CO}-[Thr(3ξ)]Y(Carboxymethyl)DWL[Bip][Ile(3ξ)][Orn][dL][Dab]LVSCN-OH; thioether N-14) it was 13.1 nM.

The same assay, now with this note: read-out: Jurkat HPD1_PDL1 IC50; Jurkat-PD-1 cells, PE-labeled PD-L1-Ig 20 nM final.
Take `CCC(C)[C@@H]1NC(=O)[C@H](Cc2ccc(-c3ccccc3)cc2)NC(=O)[C@H](C2CCCC2)NC(=O)[C@H](Cc2c[nH]c3ccccc23)NC(=O)[C@H](CC(=O)O)NC(=O)[C@H](Cc2ccc(OCC(=O)O)cc2)NC(=O)[C@H](C(C)O)NC(=O)CSC[C@@H](C(=O)N[C@@H](CC(N)=O)C(=O)O)NC(=O)[C@H](CO)NC(=O)[C@H](C(C)C)NC(=O)[C@H](CC(C)C)NC(=O)[C@H](CCN)NC(=O)[C@@H](CC(C)C)NC(=O)[C@H](CCCN)NC1=O` (stereo partly drawn) [Compound 2578] ({CH2CO}-[Thr(3ξ)]Y(Carboxymethyl)DW[Gly(cPent)][Bip][Ile(3ξ)][Orn][dL][Dab]LVSCN-OH; thioether N-14): the IC50 worked out at 24.3 nM. In the case of `CCC(C)[C@@H]1NC(=O)[C@H](Cc2ccc(-c3ccccc3)cc2)NC(=O)[C@H](CC#N)NC(=O)[C@H](Cc2c[nH]c3ccccc23)NC(=O)[C@H](CC(=O)O)NC(=O)[C@H](Cc2ccc(OCC(=O)O)cc2)NC(=O)[C@H](C(C)O)NC(=O)CSC[C@@H](C(=O)N[C@@H](CC(N)=O)C(=O)O)NC(=O)[C@H](CO)NC(=O)[C@H](C(C)C)NC(=O)[C@H](CC(C)C)NC(=O)[C@H](CCN)NC(=O)[C@@H](CC(C)C)NC(=O)[C@H](CCCN)NC1=O` (stereo partly drawn) [Compound 2579] ({CH2CO}-[Thr(3ξ)]Y(Carboxymethyl)DW[Ala(CN)][Bip][Ile(3ξ)][Orn][dL][Dab]LVSCN-OH; thioether N-14), the IC50 was found to be 153 nM. Same read-out and setting: the result for `CCC(C)[C@@H]1NC(=O)[C@H](Cc2ccc(-c3ccccc3)cc2)NC(=O)[C@H](Cc2c[nH]cn2)NC(=O)[C@H](Cc2c[nH]c3ccccc23)NC(=O)[C@H](CC(=O)O)NC(=O)[C@H](Cc2ccc(OCC(=O)O)cc2)NC(=O)[C@H](C(C)O)NC(=O)CSC[C@@H](C(=O)N[C@@H](CC(N)=O)C(=O)O)NC(=O)[C@H](CO)NC(=O)[C@H](C(C)C)NC(=O)[C@H](CC(C)C)NC(=O)[C@H](CCN)NC(=O)[C@@H](CC(C)C)NC(=O)[C@H](CCCN)NC1=O` (stereo partly drawn) [Compound 2580] ({CH2CO}-[Thr(3ξ)]Y(Carboxymethyl)DWH[Bip][Ile(3ξ)][Orn][dL][Dab]LVSCN-OH; thioether N-14) reads 45 nM. Same read-out and setting: the result for `CCC(C)[C@@H]1NC(=O)[C@H](Cc2ccc(-c3ccccc3)cc2)NC(=O)[C@H](CO)NC(=O)[C@H](Cc2c[nH]c3ccccc23)NC(=O)[C@H](CC(=O)O)NC(=O)[C@H](Cc2ccc(OCC(=O)O)cc2)NC(=O)[C@H](C(C)O)NC(=O)CSC[C@@H](C(=O)N[C@@H](CC(N)=O)C(=O)O)NC(=O)[C@H](CO)NC(=O)[C@H](C(C)C)NC(=O)[C@H](CC(C)C)NC(=O)[C@H](CCN)NC(=O)[C@@H](CC(C)C)NC(=O)[C@H](CCCN)NC1=O` (stereo partly drawn) [Compound 2581] ({CH2CO}-[Thr(3ξ)]Y(Carboxymethyl)DWS[Bip][Ile(3ξ)][Orn][dL][Dab]LVSCN-OH; thioether N-14) reads 472 nM; that for `CCC(C)[C@@H]1NC(=O)[C@H](Cc2ccc(-c3ccccc3)cc2)NC(=O)[C@H](CC(C)C)NC(=O)[C@H](Cc2c[nH]c3ccccc23)NC(=O)[C@H](CC(=O)O)NC(=O)[C@H](Cc2ccc(OCC(=O)O)cc2)NC(=O)[C@H](Cc2ccncc2)NC(=O)CSC[C@@H](C(=O)N[C@@H](CC(N)=O)C(=O)O)NC(=O)[C@H](CO)NC(=O)[C@H](C(C)C)NC(=O)[C@H](CC(C)C)NC(=O)[C@H](CCN)NC(=O)[C@@H](CC(C)C)NC(=O)[C@H](CCCN)NC1=O` (stereo partly drawn) [Compound 2582] ({CH2CO}-[4Pal]Y(Carboxymethyl)DWL[Bip][Ile(3ξ)][Orn][dL][Dab]LVSCN-OH; thioether N-14), 9.8 nM.

The record behind these values is patent US20250163104A1, “MACROCYCLIC IMMUNOMODULATORS” (priority 2021, published 2025).
